Assay results published in ChEMBL document CHEMBL1201862, “PubChem BioAssay data set” (2004).
Each block holds one compound with its values, some of them ahead of it. Active and inactive are the calls of the source.

Legend:
[1] = target: T1, Serine/threonine-protein phosphatase (Candida dubliniensis (strain CD36 / CBS 7987 / NCPF 3949 / NRRLY-17841) (Yeast), UniProt B9W6M3); experiment: calcineurin pathway inhibitors in yeast reporter, dose response, S. cerevisiae, CDRE-lacZ, luminescence, secondary (AID 2388); format: functional, cell-based;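 further: yeast reporter cells carrying a calcineurin-responsive lacZ construct stimulated with calcium chloride; luminescent beta-galactosidase reporter signal in whole cells rather than isolated phosphatase activity; potency for inhibition where a drop in reporter signal means calcineurin blockade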
T1 sequence (B9W6M3 whole entry): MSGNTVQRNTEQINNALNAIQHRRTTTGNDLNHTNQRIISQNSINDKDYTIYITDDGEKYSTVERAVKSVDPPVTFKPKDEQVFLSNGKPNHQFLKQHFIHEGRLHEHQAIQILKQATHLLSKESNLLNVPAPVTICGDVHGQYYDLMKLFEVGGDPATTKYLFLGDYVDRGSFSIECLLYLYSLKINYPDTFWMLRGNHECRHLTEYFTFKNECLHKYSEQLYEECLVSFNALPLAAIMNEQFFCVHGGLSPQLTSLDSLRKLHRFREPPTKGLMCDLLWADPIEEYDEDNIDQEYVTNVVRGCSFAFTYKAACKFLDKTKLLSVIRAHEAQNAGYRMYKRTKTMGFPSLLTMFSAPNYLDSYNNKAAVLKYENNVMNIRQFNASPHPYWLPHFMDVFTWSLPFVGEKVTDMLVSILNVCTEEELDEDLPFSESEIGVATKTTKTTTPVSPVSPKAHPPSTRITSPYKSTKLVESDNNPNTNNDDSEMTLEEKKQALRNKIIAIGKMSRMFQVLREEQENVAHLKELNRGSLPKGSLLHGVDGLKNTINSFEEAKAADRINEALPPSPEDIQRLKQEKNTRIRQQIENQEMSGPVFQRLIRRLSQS

[2] = target: ATP-dependent molecular chaperone HSP82 (Candida albicans (strain WO-1) (Yeast), UniProt C4YTQ8); experiment: loss of DOC-induced GRE-beta-galactosidase reporter signal, dose response, Hsp90 inhibitor project, S. cerevisiae, luminescence (AID 2400); format: functional, cell-based;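 further: beta-galactosidase luminescence from glucocorticoid response element reporter as proxy for Hsp90 function; inhibitor potency where signal loss means Hsp90 inhibition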
ATP-dependent molecular chaperone HSP82, sequence (C4YTQ8 whole entry, the tested form may be a part): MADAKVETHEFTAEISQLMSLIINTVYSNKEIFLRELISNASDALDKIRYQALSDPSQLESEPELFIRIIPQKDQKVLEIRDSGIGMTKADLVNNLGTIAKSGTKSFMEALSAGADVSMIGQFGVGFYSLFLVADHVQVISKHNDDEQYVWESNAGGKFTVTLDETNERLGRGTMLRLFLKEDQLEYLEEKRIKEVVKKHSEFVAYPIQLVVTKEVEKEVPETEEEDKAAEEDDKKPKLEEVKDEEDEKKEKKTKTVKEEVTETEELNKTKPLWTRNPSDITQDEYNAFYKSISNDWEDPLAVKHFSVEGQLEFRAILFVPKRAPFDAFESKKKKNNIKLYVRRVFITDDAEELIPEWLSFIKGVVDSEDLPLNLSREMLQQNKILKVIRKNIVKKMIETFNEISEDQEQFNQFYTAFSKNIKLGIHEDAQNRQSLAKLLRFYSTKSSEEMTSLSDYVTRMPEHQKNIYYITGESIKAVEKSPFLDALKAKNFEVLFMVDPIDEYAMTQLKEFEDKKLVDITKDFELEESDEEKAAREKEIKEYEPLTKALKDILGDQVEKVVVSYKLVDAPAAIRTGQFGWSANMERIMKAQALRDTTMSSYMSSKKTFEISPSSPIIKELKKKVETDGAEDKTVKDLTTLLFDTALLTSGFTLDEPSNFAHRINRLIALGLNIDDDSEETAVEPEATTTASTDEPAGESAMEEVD

[3] = target: T2, Oxysterols receptor LXR-beta (Homo sapiens, UniProt P55055); experiment: LXR agonists, Gal4 luciferase reporter, dose response, counter-screen for ssDAF-12 agonist project, cell-based, luminescence, HEK293, S. stercoralis campaign (AID 720737); format: functional; settings: read-out: IC50 (the source's name)
T2 sequence (P55055 whole entry): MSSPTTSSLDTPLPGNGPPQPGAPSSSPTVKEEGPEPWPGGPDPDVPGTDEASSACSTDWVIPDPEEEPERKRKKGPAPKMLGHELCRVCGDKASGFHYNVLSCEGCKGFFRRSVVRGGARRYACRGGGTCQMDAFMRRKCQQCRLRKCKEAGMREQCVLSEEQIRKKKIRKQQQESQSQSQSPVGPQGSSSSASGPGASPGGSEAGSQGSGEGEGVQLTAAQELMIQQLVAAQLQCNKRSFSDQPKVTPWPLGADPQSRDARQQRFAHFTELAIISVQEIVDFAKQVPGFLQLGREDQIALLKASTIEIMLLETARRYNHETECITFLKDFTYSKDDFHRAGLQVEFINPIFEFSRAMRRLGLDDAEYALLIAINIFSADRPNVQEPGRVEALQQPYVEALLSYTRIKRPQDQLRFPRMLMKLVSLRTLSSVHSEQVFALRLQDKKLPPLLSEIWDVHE

[4] = Luminescence-based cell-based high throughput dose response assay to identify activators of the DAF-12 from the parasite S. stercoralis (ssDAF-12).; format: functional
[5] = C. albicans growth with fluconazole, confirmation, fluorescence, retest (AID 2467); format: functional, cell-based
[6] = NIH-3T3 fibroblast cytotoxicity, dose response, cytotoxicity control, cell-based, fluorescence, Alamar Blue, secondary assay (AID 2327); format: functional;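 further: NIH-3T3 mouse fibroblasts cultured with fluconazole at 8 µg/mL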
[7] = target: 1-phosphatidylinositol 4,5-bisphosphate phosphodiesterase beta-3 (Homo sapiens, UniProt Q01970); experiment: Fluorescence-based biochemical high throughput dose response assay to identify inhibitors of phospholipase C isozymes (PLC-B3).
1-phosphatidylinositol 4,5-bisphosphate phosphodiesterase beta-3, sequence (Q01970 whole entry): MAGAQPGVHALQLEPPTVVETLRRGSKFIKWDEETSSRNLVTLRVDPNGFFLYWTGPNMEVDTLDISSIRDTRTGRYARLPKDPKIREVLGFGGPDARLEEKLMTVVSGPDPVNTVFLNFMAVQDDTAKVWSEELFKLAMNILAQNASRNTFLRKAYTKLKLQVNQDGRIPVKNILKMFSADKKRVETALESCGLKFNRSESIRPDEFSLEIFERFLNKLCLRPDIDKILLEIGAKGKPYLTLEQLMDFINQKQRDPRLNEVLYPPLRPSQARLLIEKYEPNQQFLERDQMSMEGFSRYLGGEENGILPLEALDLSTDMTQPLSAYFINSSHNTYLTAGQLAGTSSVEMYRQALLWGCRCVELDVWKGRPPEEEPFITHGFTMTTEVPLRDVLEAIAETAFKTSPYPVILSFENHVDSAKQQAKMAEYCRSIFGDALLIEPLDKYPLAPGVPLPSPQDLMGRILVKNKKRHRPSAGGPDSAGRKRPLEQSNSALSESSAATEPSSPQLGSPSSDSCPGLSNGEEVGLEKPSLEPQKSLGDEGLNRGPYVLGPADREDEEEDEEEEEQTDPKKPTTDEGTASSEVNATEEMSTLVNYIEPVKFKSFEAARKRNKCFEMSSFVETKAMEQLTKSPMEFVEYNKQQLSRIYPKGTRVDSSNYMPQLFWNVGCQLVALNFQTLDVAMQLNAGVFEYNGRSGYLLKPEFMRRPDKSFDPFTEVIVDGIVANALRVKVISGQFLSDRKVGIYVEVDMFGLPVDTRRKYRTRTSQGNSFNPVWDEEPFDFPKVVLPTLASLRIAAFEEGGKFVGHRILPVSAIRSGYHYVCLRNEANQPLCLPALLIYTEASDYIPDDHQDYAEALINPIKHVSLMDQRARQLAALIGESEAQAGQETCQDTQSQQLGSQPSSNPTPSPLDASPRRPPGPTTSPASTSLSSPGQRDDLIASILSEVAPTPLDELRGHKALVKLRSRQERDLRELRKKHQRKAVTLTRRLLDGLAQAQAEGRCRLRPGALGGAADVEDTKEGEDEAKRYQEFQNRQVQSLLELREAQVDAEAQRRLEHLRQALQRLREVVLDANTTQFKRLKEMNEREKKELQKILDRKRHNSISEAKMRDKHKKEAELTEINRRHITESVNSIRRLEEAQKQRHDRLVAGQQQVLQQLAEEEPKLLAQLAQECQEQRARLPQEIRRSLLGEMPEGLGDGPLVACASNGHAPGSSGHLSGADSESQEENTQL

[8] = target: 1-phosphatidylinositol 4,5-bisphosphate phosphodiesterase gamma-1 (Homo sapiens, UniProt P19174); experiment: Counterscreen for inhibitors of phospholipase C isozymes (PLC-B3): Fluorescence-based biochemical high throughput dose response assay to identify inhibitors of phospholipase C isozymes (PLC-gamma1).
1-phosphatidylinositol 4,5-bisphosphate phosphodiesterase gamma-1, sequence (P19174 whole entry): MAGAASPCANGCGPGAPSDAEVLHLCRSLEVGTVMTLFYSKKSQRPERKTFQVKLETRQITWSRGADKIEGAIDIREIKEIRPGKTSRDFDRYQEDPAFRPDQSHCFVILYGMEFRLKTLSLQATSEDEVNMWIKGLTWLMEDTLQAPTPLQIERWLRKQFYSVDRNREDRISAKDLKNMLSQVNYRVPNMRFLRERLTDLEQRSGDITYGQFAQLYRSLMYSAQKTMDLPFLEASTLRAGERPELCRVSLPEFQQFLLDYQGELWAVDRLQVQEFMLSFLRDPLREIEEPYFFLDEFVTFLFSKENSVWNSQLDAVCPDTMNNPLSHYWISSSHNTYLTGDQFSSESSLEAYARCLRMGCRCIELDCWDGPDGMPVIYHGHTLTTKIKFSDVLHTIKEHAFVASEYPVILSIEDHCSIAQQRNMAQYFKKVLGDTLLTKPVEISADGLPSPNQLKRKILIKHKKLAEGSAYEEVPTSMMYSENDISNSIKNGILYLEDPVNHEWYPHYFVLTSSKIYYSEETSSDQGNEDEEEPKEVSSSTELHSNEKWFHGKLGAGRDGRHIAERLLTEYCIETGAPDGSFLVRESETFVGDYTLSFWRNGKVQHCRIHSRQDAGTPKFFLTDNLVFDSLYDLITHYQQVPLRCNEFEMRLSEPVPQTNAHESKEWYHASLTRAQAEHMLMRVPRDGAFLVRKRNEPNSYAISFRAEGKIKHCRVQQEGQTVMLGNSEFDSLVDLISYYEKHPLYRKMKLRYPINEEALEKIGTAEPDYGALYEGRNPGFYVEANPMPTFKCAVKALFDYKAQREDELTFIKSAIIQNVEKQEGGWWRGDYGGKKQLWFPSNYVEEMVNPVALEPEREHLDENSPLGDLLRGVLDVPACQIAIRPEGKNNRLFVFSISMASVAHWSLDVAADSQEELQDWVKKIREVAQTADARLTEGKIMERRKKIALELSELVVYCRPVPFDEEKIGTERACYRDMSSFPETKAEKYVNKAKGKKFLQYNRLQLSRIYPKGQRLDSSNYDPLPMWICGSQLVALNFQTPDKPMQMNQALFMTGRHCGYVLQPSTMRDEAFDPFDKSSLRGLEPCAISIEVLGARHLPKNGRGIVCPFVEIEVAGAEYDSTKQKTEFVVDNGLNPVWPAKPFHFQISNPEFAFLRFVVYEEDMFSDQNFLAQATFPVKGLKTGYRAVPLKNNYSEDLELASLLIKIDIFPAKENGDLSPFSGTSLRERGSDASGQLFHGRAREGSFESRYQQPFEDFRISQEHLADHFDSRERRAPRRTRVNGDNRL

cells [9] = settings: HEK293
[10] = ZM109 Env clade C HIV-1 fusion inhibitors, dose response, HeLa effector, CEM target cells, luciferase, cherry-pick (AID 652058); format: functional, cell-based
[11] = CEM21 lymphoblast cell cytotoxicity, dose response, cytotoxicity control for viral fusion inhibitor project, CellTiter-Glo luminescence, cherry-picked (AID 652042); format: functional, cell-based;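 further: potency for signal decrease meaning cytotoxicity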
[12] = off-target signal loss in HeLa-CEM21 co-culture – HeLa F-luc CTL cells, cherry-picked, counter-screen for HIV-1 Env fusion inhibitor project, dose response (AID 652040); format: functional, cell-based;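 further: potency for signal decrease marking cytotoxic or nonspecific inhibition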
[13] = inhibitors of clade B AD8 Env fusion, dose response, cell-based, cherry-pick (AID 652062); format: functional;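 further: luciferase signal from cell-cell fusion driven by HIV-1 clade B AD8 Env; potency is for inhibitors of fusion seen as a drop in luminescence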
[14] = target: T3, Trace amine-associated receptor 1 (Homo sapiens, UniProt Q96RJ0); experiment: Counterscreen for agonists of the human trace amine associated receptor 1 (hTAAR1): Fluorescence-based cell-based high throughput dose response assay to identify hTAAR1 agonist that also desensitize TAAR1 receptor response.; format: functional
T3 sequence (Q96RJ0 whole entry): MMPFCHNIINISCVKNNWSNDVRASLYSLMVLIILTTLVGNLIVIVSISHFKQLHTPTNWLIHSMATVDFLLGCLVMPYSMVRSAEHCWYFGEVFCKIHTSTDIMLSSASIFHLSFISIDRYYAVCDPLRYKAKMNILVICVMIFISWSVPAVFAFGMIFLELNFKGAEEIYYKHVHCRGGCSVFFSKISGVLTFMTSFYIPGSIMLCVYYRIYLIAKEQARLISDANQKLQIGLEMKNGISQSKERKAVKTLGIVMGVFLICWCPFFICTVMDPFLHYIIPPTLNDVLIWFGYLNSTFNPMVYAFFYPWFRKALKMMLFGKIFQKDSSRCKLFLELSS

[15] = target: T3, Trace amine-associated receptor 1; experiment: Fluorescence-based cell-based high throughput dose response assay to identify agonists of the human trace amine associated receptor 1 (TAAR1).; format: functional
cells [16] = format: functional, cell-based
cells [17] = format: functional, cell-based; remark: listed apart in the source
[18] = target: T2, Oxysterols receptor LXR-beta; format: functional, cell-based
Cytochrome P450 2C9 = Cytochrome P450 2C9 (Homo sapiens, UniProt P11712)
Cytochrome P450 2C9, sequence (P11712 whole entry): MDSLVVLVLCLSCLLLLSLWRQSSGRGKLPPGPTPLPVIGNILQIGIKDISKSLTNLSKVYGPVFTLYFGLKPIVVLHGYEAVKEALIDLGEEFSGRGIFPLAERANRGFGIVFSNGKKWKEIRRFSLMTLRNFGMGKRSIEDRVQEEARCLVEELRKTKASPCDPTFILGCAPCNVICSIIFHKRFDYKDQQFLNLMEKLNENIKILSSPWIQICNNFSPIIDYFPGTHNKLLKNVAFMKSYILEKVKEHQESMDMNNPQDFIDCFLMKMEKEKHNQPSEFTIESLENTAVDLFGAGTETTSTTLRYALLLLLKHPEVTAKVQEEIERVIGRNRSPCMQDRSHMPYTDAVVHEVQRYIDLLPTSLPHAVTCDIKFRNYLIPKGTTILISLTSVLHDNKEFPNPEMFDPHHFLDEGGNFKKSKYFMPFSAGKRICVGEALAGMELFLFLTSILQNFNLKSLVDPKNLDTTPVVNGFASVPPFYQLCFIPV

Cytochrome P450 1A2 = target: T4, Cytochrome P450 1A2 (Homo sapiens, UniProt P05177);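 further: PubChem cytochrome P450 panel assay, CYP1A2 panel member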
T4 sequence (P05177 whole entry): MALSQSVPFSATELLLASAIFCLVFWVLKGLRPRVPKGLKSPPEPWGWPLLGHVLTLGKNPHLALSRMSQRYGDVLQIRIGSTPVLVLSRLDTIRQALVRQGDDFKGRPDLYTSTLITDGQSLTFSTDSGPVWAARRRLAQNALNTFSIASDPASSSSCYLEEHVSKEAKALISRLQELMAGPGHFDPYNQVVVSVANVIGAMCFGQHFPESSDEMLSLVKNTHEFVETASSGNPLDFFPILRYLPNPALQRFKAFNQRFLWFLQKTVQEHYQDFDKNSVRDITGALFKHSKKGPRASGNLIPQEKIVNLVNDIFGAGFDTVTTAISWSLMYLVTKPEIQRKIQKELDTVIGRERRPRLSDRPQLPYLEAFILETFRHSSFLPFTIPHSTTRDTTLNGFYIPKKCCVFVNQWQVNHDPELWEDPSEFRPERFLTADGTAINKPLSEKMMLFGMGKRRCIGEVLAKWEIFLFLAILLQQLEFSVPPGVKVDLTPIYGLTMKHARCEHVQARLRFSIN

[19] = inhibitors of PGC1a acetylation in cells, dose response, cell-based, cherry-picked samples (AID 720514); format: functional;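 further: potency may reflect raised or lowered acetylation signal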

SMILES: Cc1ccc(-n2nc(C)c3c(C)cc(O)nc32)cc1
- EC50 [1]: > 180 µM (inactive)
- EC50 [2]: > 150 µM (inactive)
- EC50 [3]: > 67.5 µM (inactive)
- IC50 [4]: > 67.5 µM (inactive)
- EC50 [5]: 1.54 µM (active)
- EC50 [6]: > 150 µM (inactive)

- IC50 [7]: > 122 µM (inactive)
- IC50 [8]: > 122 µM (inactive)
SMILES: Cc1cc(NC(=O)c2ccc3c(c2)OCO3)ccc1NC(=O)c1ccccc1

SMILES: COc1cc(/C=C(\C#N)C(=O)NC(C)C)cc(Cl)c1O
- AC50 (cells [9]): 50.3 µM (active)

SMILES: N=c1nc2n(cc1F)C1OC(CO)C(O)C1O2 (configuration not stated)
- AC50 [10]: < 0.26 µM (active)
- AC50 [11]: 17.9 µM (active)
- AC50 [12]: < 0.26 µM (active)
- AC50 [13]: 0.699 µM (active)

SMILES: Cn1cccc1CNCCc1ccccc1F
- IC50 [14]: 8.12 µM (active)
- EC50 [15]: 1.74 µM (active)
- IC50 (cells [16]): > 29.9 µM (inactive)
- EC50 (cells [17]): > 29.9 µM (inactive)

- EC50 [18]: > 67.5 µM (inactive)
SMILES: Brc1ccc(-c2noc(-c3ccccn3)n2)o1

- AC50 (Cytochrome P450 2C9): inconclusive
- IC50 [7]: > 122 µM (inactive)
- IC50 [8]: > 122 µM (inactive)
- AC50 (Cytochrome P450 1A2): 15.8 µM (inconclusive)
SMILES: O=C(C[S+]([O-])c1cccc(Cl)c1)Nc1ccccc1Cl (configuration not stated)

SMILES: c1ccc(CC/N=C2\CCCc3c2[nH]c2ccccc32)cc1
- IC50 [14]: 0.341 µM (active)
- EC50 [15]: 0.106 µM (active)
- IC50 (cells [16]): > 29.9 µM (inactive)
- EC50 (cells [17]): > 29.9 µM (inactive)

SMILES: Cc1ccc(S(=O)(=O)N2CCCCC2C(=O)O)cc1 (configuration not stated)
- AC50 [19]: 17.6 µM (active)
